Assay results as given in the supplement of paper PMC10307832.

Key:
Assay in all cases: relative viability (nuclei count vs DMSO), 5 days (fraction); higher = more cells survive
[1] = compound: C1COCCN1C2=NC(=NC3=C2OC4=C3C=CC=N4)C5=CC(=CC=C5)NC(=O)C6=CN=C(C=C6)N + COc1cccc2cc(-c3nc([C@H]4CC[C@H](C(=O)O)CC4)n4ncnc(N)c34)[nH]c12 [OSI-027] (partner 0.5 µM)
Method in brief: (§1)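 Relative viability equals treated-well nuclei counts divided by vehicle-well nuclei counts. Counts came from 4× images of lung cancer cell lines grown in 1536-well plates for 5 days after pin-tool dosing on the day after seeding. Dosing used one drug alone or a fixed anchor-drug dose plus five library-drug doses (not always all listed) in √10 steps, and values are medians of duplicate plates.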

[2] = compound: C1COCCN1C2=NC(=NC3=C2OC4=C3C=CC=N4)C5=CC(=CC=C5)NC(=O)C6=CN=C(C=C6)N + Nc1ncn([C@H]2C[C@H](O)[C@@H](CO)O2)c(=O)n1 [Decitabine] (partner 2 µM)
Method in brief: as §1

SGI-1776 + Decitabine = compound: CN1CCC(CNc2ccc3ncc(-c4cccc(OC(F)(F)F)c4)n3n2)CC1 [SGI-1776] + Nc1ncn([C@H]2C[C@H](O)[C@@H](CO)O2)c(=O)n1 [Decitabine] (partner 2 µM)
Method in brief: as §1

Entinostat + Foretinib = compound: Nc1ccccc1NC(=O)c1ccc(CNC(=O)OCc2cccnc2)cc1 [Entinostat] + COc1cc2c(Oc3ccc(NC(=O)C4(C(=O)Nc5ccc(F)cc5)CC4)cc3F)ccnc2cc1OCCCN1CCOCC1 [Foretinib] (partner 0.25 µM)
Method in brief: as §1

Cell Line	relative viability ([1]; first compound 0.02 µM)	relative viability ([1]; first compound 0.06325 µM)	relative viability ([1]; first compound 0.2 µM)	relative viability ([1]; first compound 0.6325 µM)	relative viability ([1]; first compound 2 µM)	relative viability ([2]; first compound 0.02 µM)	relative viability ([2]; first compound 0.06325 µM)	relative viability ([2]; first compound 0.2 µM)	relative viability ([2]; first compound 0.6325 µM)	relative viability ([2]; first compound 2 µM)	relative viability (SGI-1776 + Decitabine; first compound 0.08 µM)	relative viability (SGI-1776 + Decitabine; first compound 0.8 µM)	relative viability (SGI-1776 + Decitabine; first compound 2.53 µM)	relative viability (SGI-1776 + Decitabine; first compound 8 µM)	relative viability (Entinostat + Foretinib; first compound 0.02 µM)	relative viability (Entinostat + Foretinib; first compound 0.06325 µM)	relative viability (Entinostat + Foretinib; first compound 0.2 µM)	relative viability (Entinostat + Foretinib; first compound 0.6325 µM)	relative viability (Entinostat + Foretinib; first compound 2 µM)
HCC-15	0.709	0.702	0.644	0.506	0.456	0.606	0.646	0.608	0.691	0.429	0.593	0.692	0.593	0.414	0.984	0.886	0.802	0.592	0.331
HCC-44	0.458	0.567	0.39	0.391	0.419	0.892	0.93	1.01	0.929	0.989	0.964	0.938	0.941	0.921	–	–	–	–	–
HCC-78	0.409	0.389	0.369	0.407	0.329	0.69	0.78	0.671	0.961	0.777	0.714	0.739	0.636	0.657	0.559	0.479	0.39	0.297	0.264
HCC-366	0.82	1.04	0.68	0.537	0.352	0.296	0.395	0.343	0.373	0.223	0.335	0.382	0.373	0.316	0.994	0.992	0.685	0.265	0.0997
HCC-827	0.769	0.851	0.72	0.684	0.487	0.343	0.298	0.348	0.287	0.302	0.32	0.391	0.411	0.295	0.954	0.962	0.83	0.737	0.355
HOP-62	0.947	0.938	0.713	0.748	0.481	0.193	0.227	0.243	0.313	0.412	0.214	0.221	0.214	0.242	1.11	0.983	0.995	0.609	0.356
IA-LM	–	–	–	–	–	–	–	–	–	–	–	–	–	–	1.13	1.22	1.43	1.05	0.764
LC-2-ad	0.834	0.981	0.747	0.72	0.625	0.881	0.788	0.92	0.835	0.618	0.806	0.811	0.737	0.779	0.907	0.905	0.723	0.512	0.338
LCLC-97TM1	0.525	0.519	0.485	0.507	0.353	0.286	0.236	0.241	0.333	0.236	0.234	0.206	0.26	0.236	1.05	0.934	1	0.995	0.844
LCLC-103H	0.409	0.419	0.446	0.452	0.335	0.724	0.723	0.731	0.733	0.527	0.738	0.656	0.762	0.69	0.802	0.66	0.612	0.666	0.384
LK-2	0.196	0.178	0.165	0.216	0.196	0.306	0.267	0.256	0.259	0.243	0.323	0.356	0.3	0.286	1.02	1.31	0.905	0.683	0.543
NCI-H522	0.75	0.732	0.714	0.687	0.721	0.633	0.798	0.694	0.563	0.645	0.632	0.595	0.728	0.562	–	–	–	–	–
NCI-H1299	–	–	–	–	–	–	–	–	–	–	–	–	–	–	1.07	1.07	1.01	0.855	0.879
NCI-H1563	0.824	0.766	0.719	0.659	0.706	–	–	–	–	–	–	–	–	–	0.543	0.918	0.823	0.77	0.609
NCI-H1623	0.459	0.434	0.447	0.414	0.405	–	–	–	–	–	–	–	–	–	0.862	0.84	0.766	0.512	0.375
NCI-H1648	0.285	0.229	0.264	–	0.279	0.41	0.481	0.456	0.509	0.52	0.432	0.414	0.461	0.497	–	–	–	–	–
NCI-H1703	–	–	–	–	–	–	–	–	–	–	–	–	–	–	0.322	0.346	0.49	0.812	0.688
NCI-H1792	0.659	0.684	0.753	0.679	0.42	0.688	0.66	0.519	0.531	0.213	0.651	0.508	0.658	0.527	–	–	–	–	–
NCI-H2228	0.51	0.606	0.519	0.485	0.251	–	–	–	–	–	–	–	–	–	0.994	0.787	0.914	0.526	0.288
